Test results taken from patent US20200207872A1, “METHODS FOR TREATING INFLAMMATION AND RELATED DISEASES AND DISORDERS BY INHIBITING ALPHA PROTEIN KINASE 1” (Shanghai Yao Yuan Biotechnology Co., Ltd., priority 2017, published 2020).

Key:
ALPK1 = ALPK1 (Homo sapiens, UniProt Q96QP1); experiment: Screening of small molecule libraries for inhibitory activity against ALPK1 (binding, kinase and cell-based cytokine secretion assays); type: biochemical; details: performance in the binding and kinase assays and in at least two cell-based assays
ALPK1, sequence (Q96QP1 whole entry): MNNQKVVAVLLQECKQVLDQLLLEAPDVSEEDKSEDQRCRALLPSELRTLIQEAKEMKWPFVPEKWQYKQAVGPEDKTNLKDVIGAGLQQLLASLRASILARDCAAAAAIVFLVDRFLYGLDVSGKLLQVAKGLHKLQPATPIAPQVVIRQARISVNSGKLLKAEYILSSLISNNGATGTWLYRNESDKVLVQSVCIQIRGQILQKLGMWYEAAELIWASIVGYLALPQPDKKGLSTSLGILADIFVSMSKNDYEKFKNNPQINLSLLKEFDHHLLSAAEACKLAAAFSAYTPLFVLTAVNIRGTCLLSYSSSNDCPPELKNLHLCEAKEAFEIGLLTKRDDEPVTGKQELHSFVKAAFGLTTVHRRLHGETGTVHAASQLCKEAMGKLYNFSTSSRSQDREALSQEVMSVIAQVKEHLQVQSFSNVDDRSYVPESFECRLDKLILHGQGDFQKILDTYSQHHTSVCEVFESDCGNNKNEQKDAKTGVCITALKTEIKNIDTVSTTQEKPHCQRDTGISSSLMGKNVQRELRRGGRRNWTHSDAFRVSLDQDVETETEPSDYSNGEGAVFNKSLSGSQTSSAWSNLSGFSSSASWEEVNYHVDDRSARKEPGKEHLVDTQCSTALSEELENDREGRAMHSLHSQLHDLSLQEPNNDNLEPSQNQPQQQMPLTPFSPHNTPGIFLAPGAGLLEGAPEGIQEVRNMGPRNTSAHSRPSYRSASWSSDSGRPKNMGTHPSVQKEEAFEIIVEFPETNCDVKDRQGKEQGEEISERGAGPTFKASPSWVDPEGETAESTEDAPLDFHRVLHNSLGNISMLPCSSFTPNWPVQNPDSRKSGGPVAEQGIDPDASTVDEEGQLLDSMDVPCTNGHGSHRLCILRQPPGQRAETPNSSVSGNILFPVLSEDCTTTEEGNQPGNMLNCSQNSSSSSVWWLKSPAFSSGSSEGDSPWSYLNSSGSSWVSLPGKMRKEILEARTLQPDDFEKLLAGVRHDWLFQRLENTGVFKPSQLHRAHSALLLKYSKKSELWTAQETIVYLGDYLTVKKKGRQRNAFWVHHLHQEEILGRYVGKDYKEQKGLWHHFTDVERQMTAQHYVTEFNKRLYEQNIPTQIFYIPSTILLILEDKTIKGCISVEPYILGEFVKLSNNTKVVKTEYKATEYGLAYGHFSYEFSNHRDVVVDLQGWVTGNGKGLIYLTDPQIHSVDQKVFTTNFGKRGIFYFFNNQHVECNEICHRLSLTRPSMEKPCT
Excerpt: An ALPK1 inhibitor was identified by screening libraries of small molecules for inhibitory activity against ALPK1. Various assays were used to screen the libraries including binding assays, kinases assays, and cell-based assays for cytokine secretion.

[1] = test system: DSS-induced colitis model; experiment: DSS-induced colitis model, body weight; type: in vivo; details: female wild type FVC mice, 3% DSS day 0 to day 5, then 1 mg/kg IP daily in DMSO vs DMSO alone
Description: Mice were treated with 3% DSS from day 0 to day 5 then changed to drinking water and injected IP with either MI6C (1 mg/kg) dissolved in DMSO (n=6) or DMSO alone (n=5) daily.
The ability of MI6 to ameliorate inflammation in the DSS-induced colitis model was evaluated as follows. 8 weeks old female wild type FVC mice were treated with 3% DSS (Sodium salt, MW 40K-50K, from Affymetrix) from day 0 to day 5. The mice were then changed to drinking water. Mice were injected intraperitoneally (IP) with either MI6 (1 mg/kg) dissolved in DMSO (n=6) or DMSO alone (n=5) daily. Animals were weighed daily.

CCCCCCCCCCCCCCCC[n+]1ccn(Cc2ccccc2)c1C [MI6, 1-benzyl-3-hexadecyl-2-methyl-1H-imidazol-3-ium]
inhibitory activity against ALPK1 (ALPK1): identified as an ALPK1 inhibitor
weight gain (change in weight relative to day 0) / recovery [1]: improved weight gain
weight gain (change in weight relative to day 0) / recovery ([1]; listed as MI6C): improves recovery
